Laboratory results as given in BindingDB's records for patent US9624213 (Plexxikon, 2017).

Biological target: Serine/threonine-protein kinase B-raf [V600E] (Homo sapiens, UniProt P15056, V600E)
Assay: Biochemical activity
Experimental: Assays for biochemical and cell based activity are known in the art, for example, as described in PCT publication WO 2007/002433, the disclosure of which is hereby incorporated by reference as it relates to such assays. For example, the biochemical activity IC50 values are determined with respect to inhibition of B-Raf V600E kinase activity or p-Erk kinase activity, where inhibition of phosphorylation of a peptide substrate is measured as a function of compound concentration. Compounds to be tested are diluted in dimethyl sulfoxide to a concentration of 0.1 mM. These are serially diluted 15 uL into 30 uL of dimethyl sulfoxide seven times in 96 well plates for a total of 8 dilution points, and for each dilution point 1 uL is added to a well of an assay plate. Plates are prepared such that each well in a 384 well plate contains 1 uL of compound in 10 uL volume with 0.1 ng Raf enzyme (i.e. any of B-Raf, c-Raf-1 or B-Raf V600E, Upstate Biotechnology or prepared by methods known to one of skill in the art), 50 mM HEPES, pH 7.0, 50 mM NaCl, 2 mM MgCl2, 1 mM MnCl2, 0.01% Tween-20, 1 mM DTT, and 100 nM biotin-MEK1 as substrate. The reaction is started with addition of 10 uL of 200 uM ATP (i.e. final 100 uM ATP). After incubation of the kinase reaction for 45 minutes at room temperature, 5 uL/well of Stop Solution is added (25 mM Hepes pH 7.5, 100 mM EDTA, 0.01% BSA with donor beads (Streptavidin coated beads, Perkin Elmer), acceptor beads (Protein A coated, Perkin Elmer), and anti phosphor MEK1/2 antibody (CellSignal), each at final concentration 10 ug/mL).

Sequence of Serine/threonine-protein kinase B-raf [V600E] (P15056 2-766 V600E limits assumed): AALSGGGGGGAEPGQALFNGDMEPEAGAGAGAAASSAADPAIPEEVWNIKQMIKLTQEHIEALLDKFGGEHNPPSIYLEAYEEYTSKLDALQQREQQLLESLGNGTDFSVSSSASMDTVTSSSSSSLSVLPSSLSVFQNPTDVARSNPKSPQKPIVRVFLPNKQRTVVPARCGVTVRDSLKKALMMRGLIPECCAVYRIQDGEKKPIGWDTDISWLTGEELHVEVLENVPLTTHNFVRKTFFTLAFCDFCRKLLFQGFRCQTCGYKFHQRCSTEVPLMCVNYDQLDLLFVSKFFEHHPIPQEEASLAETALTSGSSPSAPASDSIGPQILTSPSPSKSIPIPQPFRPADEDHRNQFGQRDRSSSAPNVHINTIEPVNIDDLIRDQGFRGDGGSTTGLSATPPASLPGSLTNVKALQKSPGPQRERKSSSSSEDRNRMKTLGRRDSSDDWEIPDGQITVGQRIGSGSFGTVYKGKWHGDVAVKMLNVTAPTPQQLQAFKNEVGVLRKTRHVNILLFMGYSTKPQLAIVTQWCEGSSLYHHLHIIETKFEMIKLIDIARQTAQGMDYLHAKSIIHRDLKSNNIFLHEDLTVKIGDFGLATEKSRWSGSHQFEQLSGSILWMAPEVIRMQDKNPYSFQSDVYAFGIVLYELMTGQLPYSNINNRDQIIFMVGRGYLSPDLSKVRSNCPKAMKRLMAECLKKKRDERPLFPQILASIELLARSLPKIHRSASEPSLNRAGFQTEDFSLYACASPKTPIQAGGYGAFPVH

Structure (SMILES) | IC50
CN(C)c1ncc(-c2cnc3[nH]cc(C(=O)c4c(F)ccc(NS(=O)(=O)N5CCCC5)c4F)c3c2)cn1 | < 100 nM
CCN(C)S(=O)(=O)Nc1cccc(C(=O)c2c[nH]c3ncc(-c4ccc(C)nc4)cc23)c1F | < 100 nM
COc1ncc(-c2cnc3[nH]cc(C(=O)c4cccc(NS(=O)(=O)N5CCCC5)c4F)c3c2)c(OC)n1 [US9624213, Compound P-0044] | < 100 nM
CCN(C)S(=O)(=O)Nc1cccc(C(=O)c2c[nH]c3ncc(-c4ccc(C#N)cc4)cc23)c1F | < 100 nM
CC(C)CN(C)S(=O)(=O)Nc1cccc(C(=O)c2c[nH]c3ncc(I)cc23)c1F [US9624213, Compound P-0070] | > 100 nM
O=C(c1c(F)ccc(NS(=O)(=O)N2CCCC2)c1F)c1c[nH]c2ncc(I)cc12 | < 100 nM
CN(C)c1ccc(-c2cnc3[nH]cc(C(=O)c4cccc(NS(=O)(=O)N(C)C)c4F)c3c2)cn1 | < 100 nM
CN(C)S(=O)(=O)Nc1cccc(C(=O)c2c[nH]c3ncc(-c4ccc(F)cc4)cc23)c1F | < 100 nM
CCN(C)S(=O)(=O)Nc1cccc(C(=O)c2c[nH]c3ncc(-c4ccc(F)cc4)cc23)c1F | < 100 nM
CCN(C)S(=O)(=O)Nc1cccc(C(=O)c2c[nH]c3ncc(-c4ccc(Cl)cc4)cc23)c1F | < 100 nM
CCN(C)S(=O)(=O)Nc1cccc(C(=O)c2c[nH]c3ncc(C#N)cc23)c1F [US9624213, Compound P-0039] | < 100 nM
CCN(C)S(=O)(=O)Nc1ccc(F)c(C(=O)c2c[nH]c3ncc(-c4cnc(OC)nc4)cc23)c1F | < 100 nM
Cc1ccc(-c2cnc3[nH]cc(C(=O)c4cccc(NS(=O)(=O)N(C)C)c4F)c3c2)cn1 [US9624213, Compound P-0029] | < 100 nM
COc1ncc(-c2cnc3[nH]cc(C(=O)c4cccc(NS(=O)(=O)N(C)C5CC5)c4F)c3c2)cn1 | < 100 nM
CNS(=O)(=O)Nc1cccc(C(=O)c2c[nH]c3ncc(-c4cnc(OC)nc4)cc23)c1F | > 100 nM
CCC(C)S(=O)(=O)Nc1cccc(C(=O)c2c[nH]c3ncc(-c4cnc(C5CC5)nc4)cc23)c1F (centres undefined) [US9624213, Compound P-0228] | < 100 nM
CCN(C)S(=O)(=O)Nc1cccc(C(=O)c2c[nH]c3ncc(-c4cccnc4)cc23)c1F | < 100 nM
CCN(C)S(=O)(=O)Nc1cccc(C(=O)c2c[nH]c3ncc(-c4cnc(OC)nc4)cc23)c1F | < 100 nM
CN(C)S(=O)(=O)Nc1cccc(C(=O)c2c[nH]c3ncc(-c4ccc(C#N)cc4)cc23)c1F | < 100 nM
